Legend:
[1] = Plasma toxicokinetics after single i.v. bolus; format: in vivo, Sprague-Dawley rats; conditions: for Concentration in rat plasma: Anatabine 0.1 mg/kg dose group, individual rats; for Avg. Conc. (Combined Male and Female) / Avg. Conc. (Male or Female): Rat Plasma; for half-life: Sprague-Dawley, iv
Procedure: Six rats (3 males and 3 females) were dosed per dose group. […] Plasma and brain homogenates were stored at −80° C. until analysis.
An additional 48 rats (24 males and 24 females) received a single intravenous dose via the tail vein at the same doses as mentioned above. At 30 and 360 minutes post administration, 6 rats (3 males and 3 females) per dose group, per time point were euthanized, bled via cardiac puncture, and perfused, and brains were collected. The brains were homogenized. Blood was spun, and plasma was collected. Plasma and brain homogenate were stored at −80° C.
Four aliquots of each dose level formulation were collected and stored at −80° C. The test compound, corresponding dose level, number of animals, and sample collection times for Phase I of the study are shown in Table 3. The test compound, corresponding dose level, number of animals, and sample collection times for Phase II of the study are shown in Table 4. The physical signs of each animal were monitored following administration of the test compound.
The animals were weighed prior to dosing and received a single i.v. dose of either test compound at a volume of 5 mL/kg. Blood was collected via the venus plexus (retro-orbital) into tubes containing (K2) EDTA. No more than 0.5 mL was collected per time point. […] The brain was removed, weighed, homogenized in sterile 0.9% saline at a volume equal to its weight, and stored at −80° C.
Plasma was separated according to the instructions for MICROTAINER® brand collection tubes (3 minutes, 2000×g). Plasma was decanted into microfuge tubes and stored at −80° C. Remaining test compound was stored at −80° C.
The amount of the test agent in the supernatant was determined by liquid chromatography tandem mass spectrometry (LC/MS/MS).
Analysis. Samples were analyzed by LC/MS/MS using an Agilent 6410 mass spectrometer coupled with an Agilent 1200 high pressure liquid chromatography (HPLC) and a CTC PAL chilled autosampler, all controlled by MassHunter software (Agilent). After separation on a hydrophilic interaction liquid chromatography (HILIC) HPLC column (Sepax) using an acetonitrile-ammonium acetate/acetic acid gradient system, peaks were analyzed by mass spectrometry (MS) using ESI ionization in multiple reaction monitoring (MRM) mode. MassHunter software was used to calculate the concentration of the test compounds in samples from the peak area using the appropriate calibration curves.

[2] = test system: antibodies to PPD and thyroglobulin; test: Experimental Autoimmune Thyroiditis (Example 16A): serum antibodies to PPD and thyroglobulin; format: in vivo, mice
Procedure: Thyroiditis was induced by injection of thyroglobulin emulsified in complete Freund's adjuvant […]. On days 0 and 7, female mice received subcutaneous injection of 100 μg thyroglobulin (2 injections of 50 μg each). Control mice drank water. […] Mice were sacrificed on day 21.
Serum from control and anatabine-treated mice was examined to determine levels of antibodies to a foreign antigen (PPD).
Levels of antibodies to thyroglobulin were examined on days 7, 14, and 21 after immunization.

[3] = rat plasma, single i.v. 0.1 mg/kg, female
[4] = rat plasma, single i.v. 0.75 mg/kg, male
[5] = rat plasma, single i.v. 0.1 mg/kg, M + F
[6] = rat plasma, single i.v. 0.1 mg/kg, male
[7] = rat plasma, single i.v. 0.75 mg/kg, M + F
[8] = rat plasma, single i.v. 0.75 mg/kg, female
[9] = rat plasma, single i.v. 1.0 mg/kg, M + F
[10] = rat plasma, single i.v. 1.0 mg/kg, female
[11] = rat plasma, single i.v. 1.0 mg/kg, male

With `C1=CCC(c2cccnc2)NC1` (racemic) [Anatabine, 1,2,3,6-tetrahydro-[2,3′]bipyridinyl] the “Concentration in rat plasma” value ([1]; rat plasma, time point 4 hr) was “<LLQ”, the “Concentration in rat plasma” value ([1]; rat plasma, time point 6 hr) was “<LLQ” and the “Concentration in rat plasma” value ([1]; rat plasma, time point 8 hr) was “<LLQ”. The “Concentration in rat plasma” value ([1]; rat plasma, time point 24 hr) was “<LLQ”, the “Avg. Conc. (Combined Male and Female)” value ([1]; Anatabine 0.1 mg/kg, 8 hr) was “<LLQ” and the “Avg. Conc. (Combined Male and Female)” value ([1]; Anatabine 0.1 mg/kg, 24 hr) was “<LLQ”. For the same molecule, the “Avg. Conc. (Male or Female)” value ([1]; Anatabine 0.1 mg/kg, female, 8 hr) was “<LLQ”, the “Avg. Conc. (Male or Female)” value ([1]; Anatabine 0.1 mg/kg, female, 24 hr) was “<LLQ” and the “Avg. Conc. (Male or Female)” value ([1]; Anatabine 0.1 mg/kg, male, 6 hr (1st line)) was “<LLQ”. The “Avg. Conc. (Male or Female)” value ([1]; Anatabine 0.1 mg/kg, male, 8 hr) was “<LLQ”, the “Avg. Conc. (Male or Female)” value ([1]; Anatabine 0.1 mg/kg, male, 24 hr) was “<LLQ” and the “Avg. Conc. (Combined Male and Female)” value ([1]; Anatabine 0.75 mg/kg, 24 hr) was “<LLQ”. For the same molecule, the “Avg. Conc. (Male or Female)” value ([1]; Anatabine 0.75 mg/kg, female, 24 hr) was “<LLQ”, the “Avg. Conc. (Male or Female)” value ([1]; Anatabine 0.75 mg/kg, male, 24 hr) was “<LLQ” and the “Avg. Conc. (Combined Male and Female)” value ([1]; Anatabine 1.0 mg/kg, 24 hr) was “<LLQ”. For the same molecule, the “Avg. Conc. (Male or Female)” value ([1]; Anatabine 1.0 mg/kg, female, 24 hr) was “<LLQ”, the “Avg. Conc. (Male or Female)” value ([1]; Anatabine 1.0 mg/kg, male, 24 hr) was “<LLQ” and the half-life [1, 3] was 1.64 ± 0.59 h. The half-life [1, 4] was 1.64 ± 0.12 h, the half-life ([1]; both sexes, rat plasma, single i.v. 0.75 mg/kg, M + F) was 1.68 ± 0.09 h and the half-life ([1]; both sexes, rat plasma, single i.v. 1.0 mg/kg, M + F) was 1.64 ± 0.25 h. For the same molecule, the “apparent volume of distribution (VD) compared with nicotine” value ([1]; rat plasma, single i.v.) was “significantly greater than that of nicotine”, the “AUC0→∞” value [1, 5] was 35.0 ± 11.6 ng·h/mL and the VD [1, 5] was 6.08 ± 0.45 L/kg. For the same molecule, the t1/2 [1, 5] was 1.44 ± 0.48 h, the “AUC0→∞” value [1, 3] was 37.9 ± 15.9 ng·h/mL and the VD [1, 3] was 6.52 ± 0.66 L/kg. For the same molecule, the “AUC0→∞” value [1, 6] was 32.0 ± 7.7 ng·h/mL, the VD [1, 6] was 5.29 ± 0.49 L/kg and the t1/2 [1, 6] was 1.25 ± 0.32 h. The “AUC0→∞” value [1, 7] was 504.4 ± 63.5 ng·h/mL, the VD [1, 7] was 3.33 ± 0.13 L/kg and the “AUC0→∞” value [1, 8] was 544.5 ± 62.7 ng·h/mL. For the same molecule, the VD [1, 8] was 3.19 ± 0.15 L/kg, the t1/2 [1, 8] was 1.73 ± 0.03 h and the “AUC0→∞” value [1, 4] was 464.4 ± 36.2 ng·h/mL. The VD [1, 4] was 3.48 ± 0.18 L/kg, the “AUC0→∞” value [1, 9] was 710.07 ± 88.4 ng·h/mL and the VD [1, 9] was 3.08 ± 0.16 L/kg. For the same molecule, the “AUC0→∞” value [1, 10] was 788.9 ng·h/mL, the VD [1, 10] was 3.16 ± 0.15 L/kg and the t1/2 ([1]; rat plasma, single i.v. 1.0 mg/kg, female, 1 mg/kg) was 1.84 h. The “AUC0→∞” value [1, 11] was 631.3 ng·h/mL, the VD [1, 11] was 3.01 ± 0.12 L/kg and the t1/2 ([1]; rat plasma, single i.v. 1.0 mg/kg, male, 1 mg/kg) was 1.44 h. For the same molecule, the “plasma concentration between approximately 6 and 8 hours” value ([1]; rat, single i.v., nicotine 0.4 mg/kg, anatabine 0.1 mg/kg) was “below the limits of quantitation”, the “antibodies to PPD vs control” value ([2]; 0.05 mg/ml in drinking water) was “no significant difference” and the “antibodies to thyroglobulin vs control” value ([2]; day 7) was “no significant difference”. For the same molecule, the “antibodies to thyroglobulin vs control” value ([2]; day 14, p=0.086) was “tended to have lower thyroglobulin antibodies” and the “antibodies to thyroglobulin vs control” value ([2]; day 21) was “no significant difference”.

Source: patent publication US20160030407A1, “Method of Treating Inflammatory Lung Disease” (priority 2010, published 2016)
